In patent US20230098332A1, “HETEROCYCLIC DERIVATIVES AS TRMP8 ANTAGONISTS” (Givaudan SA, priority 2020, published 2023):
Where a name gives a salt, the structure may show the parent alone.

Tests used:
hTRPM8 = biological target: T1, hTRPM8 (Homo sapiens, UniProt Q7Z2W7); assay: Assay on TRPM8 modulators: calcium imaging (Fluo-4, Flexstation) in HEK293 cell line stably expressing hTRPM8; format: cell-based; conditions: TRPM8 agonist activity, calcium influx, HEK293 stably expressing hTRPM8, sigmoidal dose-response fit
T1 construct: expressed in transfected cells
Experimental: A HEK293 cell line stably expressing hTRPM8 was generated according to Klein et al., (Chem. Senses 36: 649-658, 2011) and receptor activation was monitored by calcium imaging in a Flexstation. For Ca-imaging assays of TRPM8 channel activation, cells were seeded on day 0 at a density of 12000 cells per well in Dulbecco's modified Eagle medium (DMEM) containing 9% foetal bovine serum in black, clear bottom 96-well plates that had been coated with 0.001% polyethyleneimine (molecular weight=60 000, Acros Organics). On day 2, agonists were evaluated via calcium imaging using Fluo-4. Briefly, growth medium was discarded, and the cells were incubated in the dark for 1 h at 37° C. in 50 μL loading buffer consisting of 2.7 μM Fluo-4 AM (Invitrogen) and […] probenecid (Sigma-Aldrich) in DMEM (without serum). After incubation, the plates were washed five times with 100 μL of assay buffer (in mM: 130 NaCl, 5 KCl, 10 HEPES, 2 CaCl2, and 10 glucose, pH7.4.) and further incubated in the dark at room temperature for 30 min. The cells were then washed five times with 100 μL assay buffer and then calcium influx to serial dilutions of inventive compounds were measured in a Flexstation 3 (Molecular Devices). Receptor activation was initiated following addition of 20 μl of a 10-fold concentrated ligand stock solution, which is also prepared in assay buffer. Fluorescence was continuously monitored for 15 seconds prior to ligand addition and for 105 seconds after ligand addition, for a total of 120 seconds. Maximal receptor activation in relation to solvent control and relative to 31.6 μM menthol is determined. Data from serial dilutions were processed with a KNIME workflow to fit a sigmoidal dose-response curve and to extrapolate EC50 values.

[1] = tested on: trained group of panelists; assay: Sensory studies in aqueous solution (trained panelists, cooling in the mouth); format: in vivo, human; conditions: 40 ppm in aqueous solution, 20 mL swilled in the mouth for 60 seconds; for Cooling after 1 hour / Max. cooling: averaged panel score 0-10
Experimental: The compounds as listed below in Table 2 were dissolved at a concentration of 1 wt-% in propylene glycol. These solutions were then dispensed in appropriate quantities into deionized water containing 0.5 wt-% Poloxamer 407 (which is a hydrophilic non-ionic surfactant, e.g., commercially available from SigmaAldrich) and 0.25 wt-% Cremaphor® RH40 (obtained from BASF) as solubilizer, to obtain the desired final concentration of 40 ppm (parts per million) of the respective compound.
A trained group of panelists evaluated the aqueous solutions containing test compound by swilling 20 mL of the solution in the mouth for 60 seconds, followed by spitting, without rinsing the mouth afterwards for the duration of the evaluation. Panelists evaluated and recorded the cooling performance as well as other sensorial and organoleptic attributes at different timepoints over a period of two hours. Cooling performance was rated on a scale from 0 to 10 with 0 being no effect and 10 being freezing. Scores were averaged for all panelists and the cooling intensity qualified as “N” for “none” (score of 0), “L” for “low” (score above 0, up to 1), “M” for “medium” (score above 1, up to 4), “S” for “strong” (score above 4, up to 8) and “E” for “extreme” (score above 8), which are provided in Table 2.

T1 sequence (Q7Z2W7 whole entry): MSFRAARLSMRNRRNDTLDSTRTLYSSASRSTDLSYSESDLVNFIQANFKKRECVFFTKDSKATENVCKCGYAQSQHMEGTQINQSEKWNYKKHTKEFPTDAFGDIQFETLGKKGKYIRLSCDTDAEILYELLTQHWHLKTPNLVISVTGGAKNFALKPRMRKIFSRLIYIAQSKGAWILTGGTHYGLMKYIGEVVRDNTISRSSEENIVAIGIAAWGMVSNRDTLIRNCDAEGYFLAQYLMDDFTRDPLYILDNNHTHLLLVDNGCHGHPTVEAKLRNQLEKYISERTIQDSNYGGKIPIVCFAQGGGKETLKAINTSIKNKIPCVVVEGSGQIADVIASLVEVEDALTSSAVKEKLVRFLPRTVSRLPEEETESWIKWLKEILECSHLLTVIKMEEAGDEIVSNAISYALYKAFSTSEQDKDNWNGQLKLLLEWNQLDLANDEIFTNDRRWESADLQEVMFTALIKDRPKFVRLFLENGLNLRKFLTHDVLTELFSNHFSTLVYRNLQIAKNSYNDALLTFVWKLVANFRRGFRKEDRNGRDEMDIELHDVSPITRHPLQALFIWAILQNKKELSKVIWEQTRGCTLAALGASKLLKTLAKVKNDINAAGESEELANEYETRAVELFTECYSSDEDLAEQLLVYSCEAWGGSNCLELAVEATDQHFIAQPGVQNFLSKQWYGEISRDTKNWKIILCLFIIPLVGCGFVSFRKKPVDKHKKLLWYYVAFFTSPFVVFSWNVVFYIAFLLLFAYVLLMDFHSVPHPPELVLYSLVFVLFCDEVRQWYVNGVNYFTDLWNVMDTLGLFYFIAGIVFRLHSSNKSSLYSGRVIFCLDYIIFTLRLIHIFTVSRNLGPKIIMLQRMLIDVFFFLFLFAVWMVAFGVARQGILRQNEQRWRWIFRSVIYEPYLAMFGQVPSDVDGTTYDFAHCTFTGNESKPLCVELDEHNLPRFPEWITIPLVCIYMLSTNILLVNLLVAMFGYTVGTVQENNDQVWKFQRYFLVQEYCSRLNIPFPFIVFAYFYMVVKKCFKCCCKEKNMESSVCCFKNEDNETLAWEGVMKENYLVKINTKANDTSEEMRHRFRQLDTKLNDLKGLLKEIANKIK

Row | SMILES | EC50 (hTRPM8) [nM] | Time of max. cooling [1] [min] | Cooling after 1 hour [1] | Max. cooling [1]
1 | Cc1ccc(OCCN2CCN(C)CC2)c(Cc2ccccc2)c1 [compound 77, 1-(2-(2-benzyl-4-methylphenoxy)ethyl)-4-methylpiperazine] | 300 to 1000 | 10 | M (“M” for “medium” (score above 1, up to 4)) | M (“M” for “medium” (score above 1, up to 4))
2 | Cc1ccc(OC(C)CN2CCN(C)CC2)c(Cc2ccccc2)c1 (stereo not drawn) [compound 90, 1-(2-(2-benzyl-4-methylphenoxy)propyl)-4-methylpiperazine] | 300 to 1000 | 10 | M (“M” for “medium” (score above 1, up to 4)) | M (“M” for “medium” (score above 1, up to 4))
3 | Cc1ccc(CCCN2CCN(C)CC2)c(Cc2ccccc2)c1 [compound 100, 1-(3-(2-benzyl-4-methylphenyl)propyl)-4-methylpiperazine] | 300 to 1000 | 10 | M (“M” for “medium” (score above 1, up to 4)) | M (“M” for “medium” (score above 1, up to 4))
4 | Cc1cc(C)c(OCCC2CCOCC2)c(Cc2ccccc2C#N)c1 [compound 119, 2-(3,5-dimethyl-2-(2-(tetrahydro-2H-pyran-4-yl)ethoxy)benzyl)benzonitrile] | 50 to 300 | 10 | L (“L” for “low” (score above 0, up to 1)) | M (“M” for “medium” (score above 1, up to 4))
5 | Cc1cc(C)c(OCCN2CCOCC2)c(C(C)c2ccccc2F)c1 (stereo not drawn) [compound 144, 4-(2-(2-(1-(2-fluorophenyl)ethyl)-4,6-dimethylphenoxy)ethyl)morpholine] | 300 to 1000 | – | – | –
6 | C=C(c1ccccc1F)c1cc(C)cc(C)c1OCCN1CCOCC1 [compound 145, 4-(2-(2-(1-(2-fluorophenyl)vinyl)-4,6-dimethylphenoxy)ethyl)morpholine] | 300 to 1000 | – | – | –
7 | Cc1cc(C)c(OCCN2CCOCC2)c(Cc2ccc(F)cc2F)c1 [compound 146, 4-(2-(2-(2,4-difluorobenzyl)-4,6-dimethylphenoxy)ethyl)morpholine] | 300 to 1000 | – | – | –
8 | Cc1cc(C)c(OCCN2CCOCC2)c(Cc2cc(F)ccc2F)c1 [compound 147, 4-(2-(2-(2,5-difluorobenzyl)-4,6-dimethylphenoxy)ethyl)morpholine] | 50 to 300 | – | – | –
9 | Cc1cc(C)c(OCCN2CCOCC2)c(Cc2c(Cl)cccc2Cl)c1 [compound 148, 4-(2-(2-(2,6-dichlorobenzyl)-4,6-dimethylphenoxy)ethyl)morpholine] | 300 to 1000 | – | – | –
10 | Cc1cc(C)c(OC(C)CN2CCOCC2)c(Cc2c(F)cccc2F)c1 (stereo not drawn) [compound 150, 4-(2-(2-(2,6-difluorobenzyl)-4,6-dimethylphenoxy)propyl)morpholine] | 300 to 1000 | – | – | –
11 | Cc1ccc(OCCN2CCOCC2)c(Cc2c(F)cccc2F)c1 [compound 151, 4-(2-(2-(2,6-difluorobenzyl)-4-methylphenoxy)ethyl)morpholine] | 50 to 300 | – | – | –
12 | Cc1cc(C)c(OCCN2CCOCC2)c(Cc2ccccc2Cl)c1 [compound 152, 4-(2-(2-(2-chlorobenzyl)-4,6-dimethylphenoxy)ethyl)morpholine] | 50 to 300 | – | – | –
13 | Cc1cc(C)c(OCCN2CCOCC2)c(Cc2cc(F)cc(F)c2)c1 [compound 154, 4-(2-(2-(3,5-difluorobenzyl)-4,6-dimethylphenoxy)ethyl)morpholine] | 300 to 1000 | – | – | –
14 | Cc1cc(C)c(OCCN2CCOCC2)cc1Cc1c(F)c(F)c(F)c(F)c1F [compound 155, 4-(2-(2,4-dimethyl-5-((perfluorophenyl)methyl)phenoxy)ethyl)morpholine] | 1000 to 35000 | – | – | –
15 | Cc1cc(C)c(OCCN2CCOCC2)c(Cc2cc(F)c(F)cc2F)c1 [compound 156, 4-(2-(2,4-dimethyl-6-(2,4,5-trifluorobenzyl)phenoxy)ethyl)morpholine] | 1000 to 35000 | – | – | –
16 | Cc1cc(C)c(OCCN2CCOCC2)c(Cc2ccccc2[N+](=O)[O-])c1 [compound 157, 4-(2-(2,4-dimethyl-6-(2-nitrobenzyl)phenoxy)ethyl)morpholine] | 300 to 1000 | – | – | –
17 | Cc1ccc(OCCN2CC(C)N(C)C(C)C2)c(Cc2ccccc2)c1 (stereo not drawn) [compound 158, 4-(2-(2-benzyl-4-methylphenoxy)ethyl)-1,2,6-trimethylpiperazine] | 300 to 1000 | 30 | M (“M” for “medium” (score above 1, up to 4)) | M (“M” for “medium” (score above 1, up to 4))
18 | Cc1ccc(OCCN2CCOCC2)c(Cc2ccccc2)c1.Cl [compound 159, 4-(2-(2-benzyl-4-methylphenoxy)ethyl)morpholine hydrochloride] | 1000 to 35000 | 5 | L (“L” for “low” (score above 0, up to 1)) | M (“M” for “medium” (score above 1, up to 4))
19 | Cc1ccc(OCCN2CC[S+]([O-])CC2)c(Cc2ccccc2)c1 [compound 160, 4-(2-(2-benzyl-4-methylphenoxy)ethyl)thiomorpholine 1-oxide] | 1000 to 35000 | – | – | –
20 | CCc1cc(C)cc(Cc2ccccc2F)c1OCCN1CCOCC1 [compound 161, 4-(2-(2-ethyl-6-(2-fluorobenzyl)-4-methylphenoxy)ethyl)morpholine] | 50 to 300 | – | – | –
21 | Cc1cc(C)c(CCCN2CCOCC2)c(Oc2ccccc2F)c1 [compound 162, 4-(3-(2-(2-fluorophenoxy)-4,6-dimethylphenyl)propyl)morpholine] | < 50 | – | – | –
22 | Cc1ccc(O)c(Cc2cc(C)ccc2OCCN2CCN(C)CC2)c1 [compound 163, 4-methyl-2-(5-methyl-2-(2-(4-methylpiperazin-1-yl)ethoxy)benzyl)phenol] | 1000 to 35000 | – | – | –
23 | CCOC(=O)c1ccc(Cc2cc(C)cc(C)c2OCCN2CCN(C)CC2)cc1 [compound 164, ethyl 4-(3,5-dimethyl-2-(2-(4-methylpiperazin-1-yl)ethoxy)benzyl)benzoate dihydrochloride] | 1000 to 35000 | – | – | –
24 | COC(=O)c1ccc(OCCN2CCN(C)CC2)c(Cc2ccccc2)c1 [compound 165, methyl 3-benzyl-4-(2-(4-methylpiperazin-1-yl)ethoxy)benzoate] | 1000 to 35000 | – | – | –
